US20090291977A1, “Chromane Derivatives Useful As Acid Pump Antagonists” (priority 2004, published 2009)

These compounds were tested against T1, Porcine gastric H+/K+-ATPase (Sus scrofa, UniProt P19156) (assay: Ion-leaky porcine gastric H+/K+-ATPase inhibition). Settings: ion-leaky vesicles, 5 mM KCl, pH 6.4, 37° C., 30 minutes.
T1 construct: The gastric vesicles were collected from interface on 0.25 M sucrose layer containing 7% Ficoll; from tissue; host or cells: mucous membrane of fresh porcine stomachs (gastric vesicles)
T1 sequence (P19156 2-1034 limits assumed): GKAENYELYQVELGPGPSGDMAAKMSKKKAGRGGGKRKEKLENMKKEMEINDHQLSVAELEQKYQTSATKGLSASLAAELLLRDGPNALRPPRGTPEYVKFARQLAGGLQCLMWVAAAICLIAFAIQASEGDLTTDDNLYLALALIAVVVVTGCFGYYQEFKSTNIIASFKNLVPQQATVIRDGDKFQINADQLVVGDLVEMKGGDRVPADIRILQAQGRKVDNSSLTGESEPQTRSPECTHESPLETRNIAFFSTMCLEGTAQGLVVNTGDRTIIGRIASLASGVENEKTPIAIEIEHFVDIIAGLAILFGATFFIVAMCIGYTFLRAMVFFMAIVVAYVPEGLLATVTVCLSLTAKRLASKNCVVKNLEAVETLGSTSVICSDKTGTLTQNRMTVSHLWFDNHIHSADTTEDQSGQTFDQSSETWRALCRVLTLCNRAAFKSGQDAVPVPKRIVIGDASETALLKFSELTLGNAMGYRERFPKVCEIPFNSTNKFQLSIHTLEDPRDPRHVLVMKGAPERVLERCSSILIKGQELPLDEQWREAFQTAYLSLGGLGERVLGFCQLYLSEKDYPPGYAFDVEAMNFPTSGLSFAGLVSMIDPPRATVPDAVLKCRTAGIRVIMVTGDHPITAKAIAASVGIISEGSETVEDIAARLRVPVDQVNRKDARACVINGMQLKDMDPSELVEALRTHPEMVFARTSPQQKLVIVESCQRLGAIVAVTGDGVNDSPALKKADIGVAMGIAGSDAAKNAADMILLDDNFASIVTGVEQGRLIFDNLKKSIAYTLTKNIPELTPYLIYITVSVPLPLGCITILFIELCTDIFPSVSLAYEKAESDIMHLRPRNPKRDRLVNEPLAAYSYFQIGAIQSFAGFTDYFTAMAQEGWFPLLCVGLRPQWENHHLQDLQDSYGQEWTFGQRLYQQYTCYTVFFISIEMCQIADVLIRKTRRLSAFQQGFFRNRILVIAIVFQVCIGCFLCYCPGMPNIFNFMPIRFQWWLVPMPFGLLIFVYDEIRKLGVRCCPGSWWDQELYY
T1 sequence (P18434 whole entry partner): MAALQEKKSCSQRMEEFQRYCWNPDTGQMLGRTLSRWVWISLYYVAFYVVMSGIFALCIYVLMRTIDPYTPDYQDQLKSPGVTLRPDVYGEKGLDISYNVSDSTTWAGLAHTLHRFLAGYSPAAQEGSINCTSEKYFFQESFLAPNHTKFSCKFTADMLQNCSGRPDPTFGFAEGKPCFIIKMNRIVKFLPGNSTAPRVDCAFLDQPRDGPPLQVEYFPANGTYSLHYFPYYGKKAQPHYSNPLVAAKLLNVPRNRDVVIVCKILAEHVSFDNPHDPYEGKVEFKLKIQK
Format: biochemical
Protocol: The porcine gastric vesicles for Porcine gastric H^+/K^+-ATPase inhibition assays were prepared from mucous membrane in fresh porcine stomachs by homogenization with a tight-fitted polytetrafluoroethylene (Teflone®) homogenizer in 0.25 M sucrose at 4° C. The crude pellet was removed with centrifugation at 20,000 g for 30 min. Then supernatant was centrifuged at 100,000 g for 30 min. The resulting pellet was re-suspended in 0.25 M sucrose, and then subjected to density gradient centrifugation at 132,000 g for 90 min. The gastric vesicles were collected from interface on 0.25 M sucrose layer containing 7% Ficoll™ PM400(Amersham Biosciences). This procedure was performed in a cold room.
Ion-leaky porcine gastric H^+/K^+-ATPase-inhibition was measured according to the modified method described in Biochemical Pharmacology, 1988, 37, 2231-2236.
The isolated vesicles were lyophilized, and then kept in deep-freezer until use. For enzyme assay, lyophilized vesicles were reconstituted with 3 mM MgSO4 containing 40 mM Bis-tris (pH 6.4 at 37° C.).
Enzyme reaction was performed incubating 5 mM KCl, 3 mM Na2ATP, 3 mM MgSO4 and 1.0 μg of reconstituted vesicles for 30 minutes at 37° C. in a final 60 μl of reaction mixture (40 mM Bis-tris, pH 6.4) with or without the test compound. Enzyme reaction was stopped by adding 10% sodium dodecyl sulphate (SDS). Released inorganic phosphate from ATP was detected by incubation with mixture of 1 part of 35 mM ammonium molybdate tetrahydrate in 15 mM Zinc acetate hydrate and 4 parts of 10% ascorbic acid (pH 5.0), resulting in phosphomolybdate, which has optical density at 750 nm.
Compound “8-3,4-Dihydro-1H-isochromen-4-ylamino)-N,N,2,3-tetramethylimidazo[1,2-a]pyridine-6-carboxamide [Example 3-1]” has an IC50 of 103 nM. Compound `Cc1nc2c(NC3CCOc4ccccc43)cc(C(=O)N(C)C)cn2c1C` (racemic) [Example 1-1, 8-(3,4-Dihydro-2H-chromen-4-ylamino)-N,N,2,3-tetramethylimidazo[1,2-a]pyridine-6-carboxamide] has an IC50 of 85 nM. Work on `Cc1nc2c(NC3CCOc4ccccc43)cc(C(=O)N(C)CCO)cn2c1C` (racemic) [Example 2-1, 8-(3,4-Dihydro-2H-chromen-4-ylamino)-N-(2-hydroxyethyl)-N,2,3-trimethylimidazo[1,2-a]pyridine-6-carboxamide] yielded an IC50 of 49.7 nM. For `Cc1nc2c(NC3COCc4ccccc43)cc(C(=O)N(C)CCO)cn2c1C` (racemic) [Example 4-1, 8-(3,4-Dihydro-1H-isochromen-4-ylamino)-N-(2-hydroxyethyl)-N,2,3-trimethylimidazo[1,2-a]pyridine-6-carboxamide], the IC50 was 87.1 nM. `Cc1cccc2c1C(Nc1cc(C(=O)N(C)CCO)cn3c(C)c(C)nc13)CCO2` (racemic) [Example 5-1, N-(2-Hydroxyethyl)-N,2,3-trimethyl-8-[(5-methyl-3,4-dihydro-2H-chromen-4-yl)amino]imidazo[1,2-a]pyridine-6-carboxamide] was tested, and the IC50 was 94.7 nM. For `Cc1nc2c(NC3CCOc4cc(F)ccc43)cc(C(=O)N(C)C)cn2c1C` (racemic) [Example 6-1, 8-[(7-Fluoro-3,4,dihydro-2H-chromen-4-yl)amino]-N,N,2,3-tetramethylimidazo[1,2-a]pyridine-6-carboxamide], the IC50 was 13.9 nM. Work on `Cc1nc2c(NC3CCOc4cc(F)ccc43)cc(C(=O)N(C)CCO)cn2c1C` (racemic) [Example 7-1, 8-[(7-Fluoro-3,4-dihydro-2H-chromen-4-yl)amino]-N-(2-hydroxyethyl)-N,2,3-trimethylimidazol[1,2-a]pyridlne-6-carboxamide] yielded an IC50 of 26.6 nM. Compound `Cc1nc2c(NC3CCOc4cc(F)cc(F)c43)cc(C(=O)N(C)C)cn2c1C` (racemic) [Example 8-1, 8-[(5,7-Difluoro-3,4-dihydro-2H-chromen-4-yl)amino]-N,N,2,3-tetramethylimidazo[1,2-a]pyridine-6-carboxamide] has an IC50 of 20 nM. In the case of `Cc1nc2c(NC3CCOc4cc(F)cc(F)c43)cc(C(=O)N(C)CCO)cn2c1C` (racemic) [Example 9-1, 8-[(5,7-Difluoro-3,4-dihydro-2H-chromen-4-yl)amino]-N-(2-hydroxyethyl)-N,2,3-trimethylimidazo[1,2-a]pyridine-6-carboxamide], the IC50 is reported as 50 nM. `Cc1nc2c(NC3CCOc4cccc(F)c43)cc(C(=O)N(C)C)cn2c1C` (racemic) [Example 10-1, 8-[(5-Fluoro-3,4-dihydro-2H-chromen-4-yl)amino]-N,N,2,3-tetramethylimidazo[1,2-a]pyridine-6-carboxamide] showed an IC50 of 75.1 nM. `Cc1nc2c(NC3CCOc4cccc(F)c43)cc(C(=O)N(C)CCO)cn2c1C` (racemic) [Example 11-1, 8-[(5-Fluoro-3,4-dihydro-2H-chromen-4-yl)amino]-N-(2-hydroxyethyl)-N,2,3-trimethylimidazo[1,2-a]pyridine-6-carboxamide] gave an IC50 of 48.6 nM. Compound `Cc1nc2c(NC3CCOc4ccc(F)cc43)cc(C(=O)N(C)C)cn2c1C` (racemic) [Example 12-1, 8-[(6-Fluoro-3,4-dihydro-2H-chromen-4-yl)amino]-N,N,2,3-tetramethylimidazo[1,2-a]pyridine-6-carboxamide] has an IC50 of 20.8 nM. Work on `Cc1nc2c(NC3CCOc4ccc(F)cc43)cc(C(=O)N(C)CCO)cn2c1C` (racemic) [Example 13-1, 8-[(6-Fluoro-3,4-dihydro-2H-chromen-4-yl)amino]-N-(2-hydroxyethyl)-N,2,3-trimethylimidazol[1,2-a]pyridine-6-carboxamide] yielded an IC50 of 250 nM. For `Cc1nc2c(NC3CCOc4c(F)cccc43)cc(C(=O)N(C)C)cn2c1C` (racemic) [Example 14-1, 8-[(8-Fluoro-3,4-dihydro-2H-chromen-4-yl)amino]-N,N,2,3-tetramethylimidazo[1,2-a]pyridine-6-carboxamide], the IC50 was 294 nM. `Cc1nc2c(NC3CCOc4c(F)cccc43)cc(C(=O)N(C)CCO)cn2c1C` (racemic) [Example 15-1, 8-[(8-Fluoro-3,4-dihydro-2H-chromen-4-yl)amino]-N-(2-hydroxyethyl)-N,2,3-trimethylimidazol[1,2-a]pyridine-6-carboxamide] showed an IC50 of 40.9 nM. `Cc1ccc2c(c1)OCCC2Nc1cc(C(=O)N(C)CCO)cn2c(C)c(C)nc12` (racemic) [Example 16-1, N-(2-Hydroxyethyl)-N,2,3-trimethyl-8-[(7-methyl-3,4-dihydro-2H-chromen-4-yl)amino]imidazo[1,2-a]pyridine-6-carboxamide] showed an IC50 of 331 nM. Work on `Cc1cccc2c1C(Nc1cc(C(=O)N(C)C)cn3c(C)c(C)nc13)CCO2` (racemic) [Example 17-1, N,N,2,3-Tetramethyl-8-[(5-methyl-3,4-dihydro-2H-chromen-4-yl)amino]imidazo[1,2-a]pyridine-6-carboxamide] yielded an IC50 of 64 nM. For `Cc1nc2c(NC3CCOc4cccc(Cl)c43)cc(C(=O)N(C)C)cn2c1C` (racemic) [Example 18-1, 8-[(5-Chloro-3,4-dihydro-2H-chromen-4-yl)amino]-N,N,2,3-tetramethylimidazo[1,2-a]pyridine-6-carboxamide], the IC50 was 350 nM. `Cc1nc2c(NC3CCOc4cccc(Cl)c43)cc(C(=O)N(C)CCO)cn2c1C` (racemic) [Example 19-1, 8-[(5-Chloro-3,4-dihydro-2H-chromen-4-yl)amino]-N-(2-hydroxyethyl)-N,2,3-trimethylimidazo[1,2-a]pyridine-6-carboxamide] was tested, and the IC50 was 390 nM. In the case of `Cc1nc2c(NC3CCOc4cc(F)ccc43)cc(C(=O)N(C)C)cn2c1C` (single isomer, unassigned) [Example 6-2, 8-[(7-Fluoro-3,4,dihydro-2H-chromen-4-yl)amino]-N,N,2,3-tetramethylimidazo[1,2-a]pyridine-6-carboxamide], the IC50 is reported as 40.9 nM. `Cc1nc2c(NC3CCOc4cc(F)ccc43)cc(C(=O)N(C)C)cn2c1C` (single isomer, unassigned) [Example 6-3, 8-[(7-Fluoro-3,4,dihydro-2H-chromen-4-yl)amino]-N,N,2,3-tetramethylimidazo[1,2-a]pyridine-6-carboxamide] was tested, and the IC50 was 15.7 nM. With `Cc1nc2c(NC3CCOc4cc(F)ccc43)cc(C(=O)N(C)CCO)cn2c1C` (single isomer, unassigned) [Example 7-2, 8-[(7-Fluoro-3,4-dihydro-2H-chromen-4-yl)amino]-N-(2-hydroxyethyl)-N,2,3-trimethylimidazol[1,2-a]pyridlne-6-carboxamide] the IC50 was 20.5 nM. In the case of `Cc1nc2c(NC3CCOc4cc(F)ccc43)cc(C(=O)N(C)CCO)cn2c1C` (single isomer, unassigned) [Example 7-3, 8-[(7-Fluoro-3,4-dihydro-2H-chromen-4-yl)amino]-N-(2-hydroxyethyl)-N,2,3-trimethylimidazol[1,2-a]pyridlne-6-carboxamide], the IC50 is reported as 55.9 nM. `Cc1nc2c(NC3CCOc4cc(F)cc(F)c43)cc(C(=O)N(C)C)cn2c1C` (single isomer, unassigned) [Example 8-2, 8-[(5,7-Difluoro-3,4-dihydro-2H-chromen-4-yl)amino]-N,N,2,3-tetramethylimidazo[1,2-a]pyridine-6-carboxamide] showed an IC50 of 23 nM. `Cc1nc2c(NC3CCOc4cc(F)cc(F)c43)cc(C(=O)N(C)C)cn2c1C` (single isomer, unassigned) [Example 8-3, 8-[(5,7-Difluoro-3,4-dihydro-2H-chromen-4-yl)amino]-N,N,2,3-tetramethylimidazo[1,2-a]pyridine-6-carboxamide] gave an IC50 of 49 nM. With `Cc1nc2c(NC3CCOc4cc(F)cc(F)c43)cc(C(=O)N(C)CCO)cn2c1C` (single isomer, unassigned) [Example 9-2, 8-[(5,7-Difluoro-3,4-dihydro-2H-chromen-4-yl)amino]-N-(2-hydroxyethyl)-N,2,3-trimethylimidazo[1,2-a]pyridine-6-carboxamide] the IC50 was 15.9 nM. Work on `Cc1nc2c(NC3CCOc4cc(F)cc(F)c43)cc(C(=O)N(C)CCO)cn2c1C` (single isomer, unassigned) [Example 9-3, 8-[(5,7-Difluoro-3,4-dihydro-2H-chromen-4-yl)amino]-N-(2-hydroxyethyl)-N,2,3-trimethylimidazo[1,2-a]pyridine-6-carboxamide] yielded an IC50 of 53.2 nM. In the case of `Cc1nc2c(NC3CCOc4cccc(F)c43)cc(C(=O)N(C)C)cn2c1C` (single isomer, unassigned) [Example 10-2, 8-[(5-Fluoro-3,4-dihydro-2H-chromen-4-yl)amino]-N,N,2,3-tetramethylimidazo[1,2-a]pyridine-6-carboxamide], the IC50 is reported as 51.1 nM. `Cc1nc2c(NC3CCOc4cccc(F)c43)cc(C(=O)N(C)C)cn2c1C` (single isomer, unassigned) [Example 10-3, 8-[(5-Fluoro-3,4-dihydro-2H-chromen-4-yl)amino]-N,N,2,3-tetramethylimidazo[1,2-a]pyridine-6-carboxamide] gave an IC50 of 91 nM.
